Patent US5089623A, “Certain imidate insecticides” (Imperial Chemical Industries Plc, priority 1990, dated 1992)

What was measured:
Format in all cases: in vivo
[1] = test system: Maize weevil [Sitophilus Zeamais (Motschulsky)]; assay: Maize weevil test (MW); settings: adult weevils, treated corn seeds, 48 hours, percent in solution
Method: The compounds in Tables 1 and 2 above were tested for insecticidal activity using the following testing procedures. LC50 values, based on the results of these tests and calculated according to dosage-mortality curves, are expressed in Table 3.
Maize weevil [Sitophilus Zeamais (Motschulsky)]
Test compounds were diluted in a 50:50 acetone:water solution. Four corn seeds [Zea mays (L.)] which had been immersed in test solutions for 2-3 seconds and allowed to dry were placed in containers together with 10 adult weevils. The containers were covered and kept at a temperature of about 25° C. Mortality was recorded after 48 hours. Test concentrations ranged from 0.01% down to that at which 50% mortalilty occurred. The LC50 values are expressed below in Table 3 under the heading "MW" in terms of percent of the test compound in solution.

[2] = test system: Tobacco Budworm [Heliothis virescens (Fabricius)] eggs; assay: Tobacco budworm egg test (TBW-E); settings: percent in solution
[3] = test system: Cabbage Looper [Trichoplusia ni (Hubner)]; assay: Cabbage looper test (CL); settings: second-instar larvae, 3-5 days, percent in solution
[4] = test system: Housefly [Musca domestica]; assay: Housefly insecticidal test (HF); settings: per 25 female houseflies, 48 hours

CC(C)C(=Nc1ccc2c(c1)OCO2)OCc1coc(Cc2ccccc2)c1 [Compound 483]
LC50 MW [1]: > 0.01% | LC50 TBW E [2]: 0.05% | LC50 CL [3]: 0.001% | LC50 HF [4]: 6 µg

CC(C)C(=Nc1ccc(F)c(Br)c1)OCc1ccc(F)c(Oc2ccc(Cl)cc2)c1 [Compound 379]
LC50 MW [1]: > 0.01% | LC50 TBW E [2]: 0.02% | LC50 CL [3]: 0.00075% | LC50 HF [4]: < 100 µg

CC(C)C(=Nc1ccc(Cl)c(F)c1)OCc1ccc(F)c(Oc2ccc(F)cc2)c1 [Compound 441]
LC50 MW [1]: 0.006% | LC50 TBW E [2]: 0.016% | LC50 CL [3]: 0.000025% | LC50 HF [4]: < 100 µg

CC(C)C(=Nc1ccc(C(F)(F)F)cc1[N+](=O)[O-])OCc1ccc(F)c(Oc2ccccc2)c1 [Compound 445]
LC50 MW [1]: > 0.01% | LC50 TBW E [2]: > 0.1% | LC50 CL [3]: 0.00045% | LC50 HF [4]: < 100 µg

CC(C)C(=Nc1ccc(S(C)(=O)=O)cc1)OCc1ccc(F)c(Oc2ccc(F)cc2)c1 [Compound 414]
LC50 MW [1]: > 0.01% | LC50 TBW E [2]: > 0.1% | LC50 CL [3]: 0.0024% | LC50 HF [4]: < 100 µg

CCOc1ccc(N=C(OCc2cccc(Oc3ccccc3)c2)C(C)C)cc1 [Compound 371]
LC50 MW [1]: > 0.01% | LC50 TBW E [2]: > 0.1% | LC50 CL [3]: 0.0022% | LC50 HF [4]: < 100 µg

Cc1cc(N=C(OCc2cccc(Oc3ccc(Cl)cc3)c2)C(C)C)ccc1F [Compound 397]
LC50 MW [1]: > 0.01% | LC50 TBW E [2]: < 0.1% | LC50 CL [3]: 0.0019% | LC50 HF [4]: < 100 µg

CC(C)C(=Nc1cccc(C(F)(F)F)c1)OCc1cccc(Oc2ccc(Cl)cc2)n1 [Compound 477]
LC50 MW [1]: 0.0076% | LC50 TBW E [2]: > 0.1% | LC50 CL [3]: 0.0003% | LC50 HF [4]: 20 µg

Cc1ccc(N=C(OCc2ccc(F)c(Oc3ccc(Cl)cc3)c2)C(C)C)cc1C [Compound 406]
LC50 MW [1]: > 0.01% | LC50 TBW E [2]: < 0.1% | LC50 CL [3]: > 0.1% | LC50 HF [4]: < 100 µg

Cc1ccc(N=C(OCc2cccc(Oc3ccc(Cl)cc3)c2)C(C)C)cc1Cl [Compound 403]
LC50 MW [1]: > 0.01% | LC50 TBW E [2]: > 0.1% | LC50 CL [3]: > 0.1% | LC50 HF [4]: < 100 µg

CC(C)C(=Nc1ccc(F)c(F)c1)OCc1cccc(Oc2ccc(Cl)cc2)n1 [Compound 559]
LC50 MW [1]: > 0.01% | LC50 TBW E [2]: 0.017% | LC50 CL [3]: 0.00027% | LC50 HF [4]: < 100 µg

CCc1ccc(N=C(OCc2cccc(Oc3ccc(F)cc3)c2)C(C)C)cc1Cl [Compound 438]
LC50 MW [1]: > 0.01% | LC50 TBW E [2]: < 0.1% | LC50 CL [3]: 0.0009% | LC50 HF [4]: > 100 µg

CC(C)C(=Nc1ccc(Cl)cc1)OCc1cccc(Oc2ccccc2)n1 [Compound 553]
LC50 MW [1]: > 0.01% | LC50 TBW E [2]: 0.1% | LC50 CL [3]: < 0.1% | LC50 HF [4]: < 100 µg

Fc1ccc(COC(=Nc2ccc(C(F)(F)F)cc2)C2CC2)cc1Oc1ccccc1 [Compound 443]
LC50 MW [1]: < 0.01% | LC50 TBW E [2]: 0.017% | LC50 CL [3]: 0.00015% | LC50 HF [4]: < 100 µg

CCOc1ccc(N=C(OCc2ccc(F)c(Oc3ccccc3)c2)C(C)C)cc1 [Compound 373]
LC50 MW [1]: > 0.01% | LC50 TBW E [2]: > 0.1% | LC50 CL [3]: > 0.1% | LC50 HF [4]: < 100 µg

CC(C)C(=Nc1ccc(Cl)c(C(F)(F)F)c1)OCc1cccc(Oc2ccccc2)n1 [Compound 555]
LC50 MW [1]: > 0.01% | LC50 TBW E [2]: > 0.1% | LC50 CL [3]: 0.002% | LC50 HF [4]: < 100 µg

CC(C)C(=Nc1ccc(F)c(Cl)c1F)OCc1ccc(F)c(Oc2ccc(Cl)cc2)c1 [Compound 395]
LC50 MW [1]: 0.004% | LC50 TBW E [2]: 0.018% | LC50 CL [3]: < 0.1% | LC50 HF [4]: 8.6 µg

CC(C)C(=Nc1c(F)c(F)cc(F)c1F)OCc1cccc(Oc2ccc(F)cc2)c1 [Compound 304]
LC50 MW [1]: > 0.01% | LC50 TBW E [2]: > 0.1% | LC50 CL [3]: 0.0024% | LC50 HF [4]: > 100 µg

CCc1ccc(N=C(OCc2cccc(Oc3ccccc3)c2)C(C)(C)C)cc1 [Compound 163]
LC50 MW [1]: > 0.01% | LC50 TBW E [2]: > 0.1% | LC50 CL [3]: 0.004% | LC50 HF [4]: > 100 µg

C=C(C)C(=Nc1ccc(C(F)(F)F)cc1)OCc1cccc(Oc2ccccc2)c1 [Compound 430]
LC50 MW [1]: 0.004% | LC50 TBW E [2]: 0.032% | LC50 CL [3]: 0.001% | LC50 HF [4]: < 100 µg

CC(C)C(=Nc1cccc(Br)c1)OCc1ccc(F)c(Oc2ccc(Cl)cc2)c1 [Compound 386]
LC50 MW [1]: > 0.01% | LC50 TBW E [2]: > 0.1% | LC50 CL [3]: 0.0012% | LC50 HF [4]: < 100 µg

CCOc1cccc(N=C(OCc2ccc(F)c(Oc3ccc(F)cc3)c2)C(C)C)c1 [Compound 426]
LC50 MW [1]: > 0.01% | LC50 TBW E [2]: > 0.1% | LC50 CL [3]: 0.002% | LC50 HF [4]: > 100 µg

CC(C)C(=Nc1ccc(OCC(F)(F)F)c(F)c1)OCc1cccc(Oc2ccc(Cl)cc2)c1 [Compound 429]
LC50 MW [1]: > 0.01% | LC50 TBW E [2]: < 0.1% | LC50 CL [3]: 0.0017% | LC50 HF [4]: > 100 µg

CC(C)C(=Nc1cccc(OC(F)(F)F)c1)OCc1ccc(F)c(Oc2ccc(Cl)cc2)c1 [Compound 436]
LC50 MW [1]: > 0.01% | LC50 TBW E [2]: < 0.1% | LC50 CL [3]: 0.00075% | LC50 HF [4]: < 100 µg

CC(C)C(=Nc1ccc(F)c(Cl)c1)OCc1ccnc(Oc2ccc(F)cc2)c1 [Compound 511]
LC50 MW [1]: > 0.01% | LC50 TBW E [2]: > 0.1% | LC50 CL [3]: 0.0012% | LC50 HF [4]: 89 µg

COCc1c(F)c(F)c(COC(=Nc2cccc(C(F)(F)F)c2)C(C)C)c(F)c1F [Compound 503]
LC50 MW [1]: > 0.01% | LC50 TBW E [2]: 0.08% | LC50 CL [3]: 0.001% | LC50 HF [4]: 21 µg

Fc1ccc(Oc2cccc(COC(=Nc3ccc(F)c(Cl)c3)C3CC3)c2)cc1 [Compound 116]
LC50 MW [1]: > 0.01% | LC50 TBW E [2]: 0.05% | LC50 CL [3]: 0.00025% | LC50 HF [4]: 15 µg

COCc1c(F)c(F)c(COC(=Nc2ccc(F)c(Cl)c2)C(C)C)c(F)c1F [Compound 505]
LC50 MW [1]: > 0.01% | LC50 TBW E [2]: 0.09% | LC50 CL [3]: 0.0024% | LC50 HF [4]: 14 µg

C=C(C)C(=Nc1ccc(F)c(Cl)c1)OCc1ccc(F)c(Oc2ccccc2)c1 [Compound 416]
LC50 MW [1]: > 0.01% | LC50 TBW E [2]: 0.018% | LC50 CL [3]: 0.00027% | LC50 HF [4]: < 100 µg

COc1ccc(N=C(OCc2ccc(F)c(Oc3ccccc3)c2)C(C)C)cc1Cl [Compound 409]
LC50 MW [1]: > 0.01% | LC50 TBW E [2]: 0.025% | LC50 CL [3]: 0.0017% | LC50 HF [4]: < 100 µg

CC(C)C(=Nc1ccc(F)c(Cl)c1)OCc1ccnc(Oc2ccccc2)c1 [Compound 510]
LC50 MW [1]: > 0.01% | LC50 TBW E [2]: > 0.1% | LC50 CL [3]: 0.017% | LC50 HF [4]: 54 µg

CC(C)C(=Nc1ccc(OC(F)(F)C(F)Cl)cc1)OCc1ccc(F)c(Oc2ccccc2)c1 (stereo not shown) [Compound 419]
LC50 MW [1]: > 0.01% | LC50 TBW E [2]: > 0.1% | LC50 CL [3]: > 0.1% | LC50 HF [4]: > 100 µg

CC(C)C(=Nc1ccc(C(F)(F)F)cc1Cl)OCc1ccc(F)c(Oc2ccccc2)c1 [Compound 428]
LC50 MW [1]: > 0.01% | LC50 TBW E [2]: > 0.1% | LC50 CL [3]: 0.0017% | LC50 HF [4]: > 100 µg

CC(C)C(=Nc1ccc(C#N)cc1)OCc1cccc(Oc2ccc(Cl)cc2)c1 [Compound 393]
LC50 MW [1]: > 0.01% | LC50 TBW E [2]: > 0.1% | LC50 CL [3]: 0.00037% | LC50 HF [4]: < 100 µg
